Results reported in PubChem BioAssay (NCI).
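All cell lines were grown in 96-well plates and treated with compound for 48 hours. GI50 = concentration required for 50% inhibition of growth. TGI: concentration producing complete growth inhibition.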

Assays:
Assay in all cases: NCI tumour cell line growth inhibition, 48 h
[1] = test system: 786-0 renal
[2] = test system: A498 renal
[3] = test system: A549 NSCLC
[4] = test system: ACHN renal
[5] = test system: BT-549 breast
[6] = test system: CAKI-1 renal
[7] = test system: CCRF-CEM leukemia
[8] = test system: COLO 205 colon
[9] = test system: DU-145 prostate
[10] = test system: EKVX NSCLC
[11] = test system: HCC-2998 colon
[12] = test system: HCT-116 colon
[13] = test system: HCT-15 colon
[14] = test system: HL-60(TB) leukemia
[15] = test system: HOP-62 NSCLC
[16] = test system: HOP-92 NSCLC
[17] = test system: HS 578T breast
[18] = test system: HT29 colon
[19] = test system: IGROV1 ovarian
[20] = test system: K-562 leukemia
[21] = test system: KM12 colon
[22] = test system: M14 melanoma
[23] = test system: MALME-3M melanoma
[24] = test system: MCF7 breast
[25] = test system: MDA-MB-231 breast
[26] = test system: MDA-MB-435
[27] = test system: MOLT-4 leukemia
[28] = test system: NCI-H226 lung
[29] = test system: NCI-H460 lung
[30] = test system: NCI-H522 lung
[31] = test system: NCI/ADR-RES ovarian
[32] = test system: OVCAR-3 ovarian
[33] = test system: OVCAR-4 ovarian
[34] = test system: OVCAR-5 ovarian
[35] = test system: OVCAR-8 ovarian
[36] = test system: PC-3 prostate
[37] = test system: RPMI-8226 leukemia
[38] = test system: RXF 393 renal
[39] = test system: SF-268 CNS
[40] = test system: SF-295 CNS
[41] = test system: SF-539 CNS
[42] = test system: SK-MEL-2 melanoma
[43] = test system: SK-MEL-28 melanoma
[44] = test system: SK-MEL-5 melanoma
[45] = test system: SK-OV-3 ovarian
[46] = test system: SN12C renal
[47] = test system: SNB-19 CNS
[48] = test system: SNB-75 CNS
[49] = test system: SR leukemia
[50] = test system: SW-620 colon
[51] = test system: T-47D breast
[52] = test system: TK-10 renal
[53] = test system: U251 CNS
[54] = test system: UACC-257 melanoma
[55] = test system: UACC-62 melanoma
[56] = test system: UO-31 renal

With `C=C(C)[C@@H]1CC[C@]2(COC)CC[C@]3(C)[C@H](CC[C@@H]4[C@@]5(C)CCCNC(C)(C)[C@@H]5CC[C@]43C)[C@@H]12` the GI50 [1] was 1750 nM, the TGI [1] was 3480 nM and the GI50 [2] was 1660 nM. The TGI [2] was 3110 nM, the GI50 [3] was 1600 nM and the TGI [3] was 3160 nM. The GI50 [4] was 1690 nM, the TGI [4] was 3080 nM and the GI50 [5] was 1750 nM. For the same compound, the TGI [5] was 3210 nM, the GI50 [6] was 1590 nM and the TGI [6] was 3070 nM. It also gave a GI50 [7] of 1240 nM, a TGI [7] of 2990 nM and a GI50 [8] of 1490 nM. For the same compound, the TGI [8] was 3220 nM, the GI50 [9] was 1770 nM and the TGI [9] was 3210 nM. For the same compound, the GI50 [10] was 1630 nM, the TGI [10] was 3140 nM and the GI50 [11] was 1260 nM. For the same compound, the TGI [11] was 2670 nM, the GI50 [12] was 1130 nM and the TGI [12] was 2590 nM. The GI50 [13] was 1430 nM, the TGI [13] was 2920 nM and the GI50 [14] was 1330 nM. It also gave a TGI [14] of 3510 nM, a GI50 [15] of 1950 nM and a TGI [15] of 3900 nM. The GI50 [16] was 1150 nM, the TGI [16] was 2470 nM and the GI50 [17] was 2530 nM. For the same compound, the TGI [17] was 5570 nM, the GI50 [18] was 562 nM and the TGI [18] was 2090 nM. It also gave a GI50 [19] of 1560 nM, a TGI [19] of 3010 nM and a GI50 [20] of 323 nM. The TGI [20] was 1660 nM, the GI50 [21] was 1820 nM and the TGI [21] was 3650 nM. The GI50 [22] was 1630 nM, the TGI [22] was 3340 nM and the GI50 [23] was 1420 nM. It also gave a TGI [23] of 3070 nM, a GI50 [24] of 301 nM and a TGI [24] of 2240 nM. The GI50 [25] was 1800 nM, the TGI [25] was 3380 nM and the GI50 [26] was 1610 nM. It also gave a TGI [26] of 3090 nM, a GI50 [27] of 1250 nM and a TGI [27] of 3490 nM. It also gave a GI50 [28] of 1930 nM, a TGI [28] of 3930 nM and a GI50 [29] of 1640 nM. It also gave a TGI [29] of 3500 nM, a GI50 [30] of 1730 nM and a TGI [30] of 3420 nM. It also gave a GI50 [31] of 1680 nM, a TGI [31] of 3400 nM and a GI50 [32] of 1900 nM. The TGI [32] was 3730 nM, the GI50 [33] was 1540 nM and the TGI [33] was 3000 nM. It also gave a GI50 [34] of 1660 nM, a TGI [34] of 3110 nM and a GI50 [35] of 1910 nM. The TGI [35] was 4000 nM, the GI50 [36] was 1260 nM and the TGI [36] was 2520 nM. The GI50 [37] was 1170 nM, the TGI [37] was 3430 nM and the GI50 [38] was 1550 nM. The TGI [38] was 2940 nM, the GI50 [39] was 1950 nM and the TGI [39] was 3850 nM. The GI50 [40] was 1780 nM, the TGI [40] was 3240 nM and the GI50 [41] was 1570 nM. For the same compound, the TGI [41] was 3020 nM, the GI50 [42] was 1840 nM and the TGI [42] was 3520 nM. It also gave a GI50 [43] of 1620 nM, a TGI [43] of 2990 nM and a GI50 [44] of 1590 nM. The TGI [44] was 3000 nM, the GI50 [45] was 1790 nM and the TGI [45] was 3320 nM. For the same compound, the GI50 [46] was 1570 nM, the TGI [46] was 3090 nM and the GI50 [47] was 1710 nM. It also gave a TGI [47] of 3130 nM, a GI50 [48] of 1750 nM and a TGI [48] of 3920 nM. For the same compound, the GI50 [49] was 481 nM, the TGI [49] was 2510 nM and the GI50 [50] was 1770 nM. The TGI [50] was 3710 nM, the GI50 [51] was 1180 nM and the TGI [51] was 2990 nM. It also gave a GI50 [52] of 1910 nM, a TGI [52] of 3520 nM and a GI50 [53] of 1550 nM. It also gave a TGI [53] of 3180 nM, a GI50 [54] of 1930 nM and a TGI [54] of 3760 nM. It also gave a GI50 [55] of 1680 nM, a TGI [55] of 3110 nM and a GI50 [56] of 1450 nM. For the same compound, the TGI [56] was 2780 nM.
